In test [1] the target is T1, ATM enzyme (Homo sapiens, UniProt Q13315).
T1 construct: purchased Eurofins 14-933
The experiment in a line: ATM kinase assay (HTRF). As to conditions: 0.5 h; C 1 μm; read-out: Inh (%) ATM kinase inhibition rate. In kind it is biochemical. The procedure: The mixture was centrifuged at 1000 rpm for 1 minute, and reacted at room temperature away from light for 30 minutes. Then 5 μL of EDTA stop solution (250 mM) was added to stop the reaction. After 5 μL of detection mixture (Anti-phospho-p53 (ser15)-K (Cisbio, #61P08KAE, 0.084 ng/μL) and Anti-GST-d2 (Cisbio, #61GSTDLA, 5.00 ng/μL)) was finally added to each well, then incubate the plate overnight at room temperature.
Relative fluorescence ratio was calculated: Ratio665 nm/615 nm-Ratiobackground, and inhibition rate %=(1−(relative fluorescence ratio of test compound well−relative fluorescence ratio of positive control well)/(relative fluorescence ratio of negative control well−relative fluorescence ratio of positive control well))×100 was calculated. Data were analyzed using GraphPad Prism6.0, and fitted using the curve equation: Y=Bottom+(Top−Bottom)/(1+10^((Log IC50−X)×HillSlope)) and IC50 values were calculated.
(In TR-FRET formats the signal depends on donor and acceptor labels being close together.)

The subject of test [2] is human colon cancer cell SW620. The test can be described thus: MTT assay, growth of SW620 cells, compounds combined with CPT-11. Format: cell-based. As to conditions: Homo sapiens, SW-620, 120 h; SW620 cells, medium containing 205 nM CPT-11, 5 days, MTT; read-out: IC50, growth of SW620 combined with CPT-11. The method, then: The cells were seeded into 96-well cell culture plate with appropriate cell density and incubated overnight in a 37° C. 5% CO2 incubator. […] 5 μL of each concentration was added to 120 μL of medium (25 times diluted) and mixed by shaking. […] After removing the original solution, 100 μL of fresh serum-free DMEM medium containing MTT (0.5 mg/mL) was added to each well, the culture was continued. […] GraphPad Prism 6.0 was used to analyze the data. The inhibitory activity of compounds on cell proliferation was plotted based on cell viability and compound concentration.

In test [3] the test system is human breast cancer cell MDA-MB-468. The test can be described thus: MTT assay, growth of MDA-MB-468 cells. As to conditions: Homo sapiens, 168 h; MDA-MB-468 cells, 7 days, MTT; read-out: IC50, growth of MDA-MB-468. In kind it is cell-based. The procedure:
The cells were seeded into 96-well cell culture plate with appropriate cell density and incubated overnight in a 37° C. 5% CO2 incubator. […] 5 μL of each concentration was added to 120 μL of medium (25 times diluted) and mixed by shaking. The overnight cells were taken and the culture medium was removed, 195 μL of fresh medium was added to each well, and 5 μL of diluted medium containing the corresponding concentration of the tested sample was added, respectively, and the culture plate was then placed in the 5% CO2 cell culture incubator at 37° C. for 7 days (On the fourth day, the medium containing drugs was removed and fresh medium containing drugs was added for continuous cultivation.). After removing the original solution, 100 μL of fresh serum-free DMEM medium containing MTT (0.5 mg/mL) was added to each well, the culture was continued. […] GraphPad Prism 6.0 was used to analyze the data. The inhibitory activity of compounds on cell proliferation was plotted based on cell viability and compound concentration.
A general note: Formazan colour is commonly taken as a measure of viable cells.

T1 sequence (Q13315 whole entry): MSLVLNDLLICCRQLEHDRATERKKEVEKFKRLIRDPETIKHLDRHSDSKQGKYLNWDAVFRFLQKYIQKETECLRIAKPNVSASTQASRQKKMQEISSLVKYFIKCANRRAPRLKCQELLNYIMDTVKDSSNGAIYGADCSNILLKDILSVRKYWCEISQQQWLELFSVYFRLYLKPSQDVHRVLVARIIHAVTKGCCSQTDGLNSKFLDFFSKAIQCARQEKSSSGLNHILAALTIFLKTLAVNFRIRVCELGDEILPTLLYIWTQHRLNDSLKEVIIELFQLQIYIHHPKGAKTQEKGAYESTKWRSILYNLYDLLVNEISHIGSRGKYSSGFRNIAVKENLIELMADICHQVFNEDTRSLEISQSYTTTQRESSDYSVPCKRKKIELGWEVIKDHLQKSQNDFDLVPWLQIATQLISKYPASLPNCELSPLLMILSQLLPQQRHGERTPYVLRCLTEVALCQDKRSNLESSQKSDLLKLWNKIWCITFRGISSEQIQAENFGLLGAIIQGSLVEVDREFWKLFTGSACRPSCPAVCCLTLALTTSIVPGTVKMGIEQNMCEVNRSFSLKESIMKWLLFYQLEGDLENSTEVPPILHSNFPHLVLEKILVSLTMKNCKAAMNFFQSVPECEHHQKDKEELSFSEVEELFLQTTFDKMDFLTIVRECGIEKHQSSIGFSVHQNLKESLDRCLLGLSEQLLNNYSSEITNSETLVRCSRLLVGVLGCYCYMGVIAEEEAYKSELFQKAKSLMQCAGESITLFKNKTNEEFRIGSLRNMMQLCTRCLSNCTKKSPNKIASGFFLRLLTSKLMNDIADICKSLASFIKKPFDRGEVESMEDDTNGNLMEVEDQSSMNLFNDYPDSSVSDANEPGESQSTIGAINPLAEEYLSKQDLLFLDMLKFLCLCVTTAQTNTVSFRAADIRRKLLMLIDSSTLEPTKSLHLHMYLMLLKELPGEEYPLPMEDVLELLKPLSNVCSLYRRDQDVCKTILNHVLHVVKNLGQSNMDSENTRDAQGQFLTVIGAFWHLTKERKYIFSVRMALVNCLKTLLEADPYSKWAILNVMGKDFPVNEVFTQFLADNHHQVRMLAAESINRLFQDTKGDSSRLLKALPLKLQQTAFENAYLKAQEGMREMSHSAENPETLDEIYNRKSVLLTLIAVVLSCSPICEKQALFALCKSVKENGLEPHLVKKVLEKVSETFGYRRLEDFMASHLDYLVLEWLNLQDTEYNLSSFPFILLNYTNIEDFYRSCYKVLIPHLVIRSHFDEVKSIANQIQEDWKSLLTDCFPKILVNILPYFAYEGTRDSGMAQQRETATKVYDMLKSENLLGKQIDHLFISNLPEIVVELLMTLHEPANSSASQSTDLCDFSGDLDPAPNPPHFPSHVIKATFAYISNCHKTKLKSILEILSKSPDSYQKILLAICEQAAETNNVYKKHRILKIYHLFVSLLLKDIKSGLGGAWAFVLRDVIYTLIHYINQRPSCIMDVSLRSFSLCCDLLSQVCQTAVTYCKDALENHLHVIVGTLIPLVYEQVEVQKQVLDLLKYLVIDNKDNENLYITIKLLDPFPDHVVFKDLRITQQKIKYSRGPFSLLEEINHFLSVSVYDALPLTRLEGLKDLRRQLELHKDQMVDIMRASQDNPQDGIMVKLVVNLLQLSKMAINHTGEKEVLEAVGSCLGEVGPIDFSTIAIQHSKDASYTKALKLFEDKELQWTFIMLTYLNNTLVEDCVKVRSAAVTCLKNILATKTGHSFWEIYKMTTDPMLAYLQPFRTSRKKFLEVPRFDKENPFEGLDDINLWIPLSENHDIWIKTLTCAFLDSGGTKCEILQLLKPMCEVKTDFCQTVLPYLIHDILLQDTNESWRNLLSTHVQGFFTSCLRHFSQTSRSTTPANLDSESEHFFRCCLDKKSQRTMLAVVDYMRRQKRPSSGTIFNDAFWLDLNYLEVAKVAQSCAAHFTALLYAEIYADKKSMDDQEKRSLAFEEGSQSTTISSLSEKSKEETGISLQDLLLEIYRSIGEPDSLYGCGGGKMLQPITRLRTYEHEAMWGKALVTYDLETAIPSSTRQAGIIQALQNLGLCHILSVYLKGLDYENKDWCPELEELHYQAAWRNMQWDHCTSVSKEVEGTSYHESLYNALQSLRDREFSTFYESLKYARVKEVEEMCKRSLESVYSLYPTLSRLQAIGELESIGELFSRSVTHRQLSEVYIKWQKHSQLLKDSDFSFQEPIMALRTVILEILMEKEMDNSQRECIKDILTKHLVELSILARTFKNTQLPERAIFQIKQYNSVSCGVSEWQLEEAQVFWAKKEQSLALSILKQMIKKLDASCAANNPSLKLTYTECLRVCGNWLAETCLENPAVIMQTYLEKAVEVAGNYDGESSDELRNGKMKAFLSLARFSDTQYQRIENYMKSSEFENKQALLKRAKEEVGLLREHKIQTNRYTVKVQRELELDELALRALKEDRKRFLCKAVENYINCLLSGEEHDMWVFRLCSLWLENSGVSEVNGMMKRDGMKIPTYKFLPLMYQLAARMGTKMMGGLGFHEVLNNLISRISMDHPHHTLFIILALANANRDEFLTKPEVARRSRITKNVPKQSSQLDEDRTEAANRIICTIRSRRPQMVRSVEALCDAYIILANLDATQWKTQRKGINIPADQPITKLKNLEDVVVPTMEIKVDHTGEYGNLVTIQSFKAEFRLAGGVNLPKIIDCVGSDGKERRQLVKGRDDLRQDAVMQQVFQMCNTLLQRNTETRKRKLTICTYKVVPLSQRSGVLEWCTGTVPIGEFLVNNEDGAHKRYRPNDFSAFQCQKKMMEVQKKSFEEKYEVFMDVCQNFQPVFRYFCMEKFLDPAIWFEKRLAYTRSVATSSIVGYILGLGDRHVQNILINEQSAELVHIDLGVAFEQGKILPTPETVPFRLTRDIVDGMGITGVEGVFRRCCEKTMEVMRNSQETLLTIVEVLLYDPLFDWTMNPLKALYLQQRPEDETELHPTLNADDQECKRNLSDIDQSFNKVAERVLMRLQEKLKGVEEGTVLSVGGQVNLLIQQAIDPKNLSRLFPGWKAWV

For orientation: inhibition means the percentage by which the read-out fell short of the control. For orientation: IC50 means the concentration that inhibits the measured activity by half. For `CCn1c(=O)c(C2CCOCC2)c2c3cc(-c4ccc(OCCCN(C)C)nc4)ccc3ncn21` [Example 26, 9-(6-(3-(dimethylamino)propoxy)pyridin-3-yl)-3-ethyl-1-(tetrahydro-2H-pyran-4-yl)pyrazolo[1,5-c]quinazolin-2(3H)-one], the inhibition at 1 µM in test [1] is 66.5%. Also, the IC50 came out at 142 nM in test [2] and 123 nM in test [3].
